In PubChem BioAssay AID1259407 (Chemical Carcinogenesis Research Information System (CCRIS), 2018) one finds mutagenic call data, which are given here for six compounds.

The test system of this data set is CCRIS mutagenicity, Ames/micronucleus/aberration tests. Briefly: CCRIS mutagenicity studies.
The mark [1] stands for this setting: Test System: AMES SALMONELLA TYPHIMURIUM, Strain/Indicator: TA98, Metabolic Activation: NONE, Method: STANDARD PLATE.
Setting [2] is: Test System: AMES SALMONELLA TYPHIMURIUM, Strain/Indicator: TA100, Metabolic Activation: NONE, Method: STANDARD PLATE.
The mark [3] stands for this setting: Test System: AMES SALMONELLA TYPHIMURIUM, Strain/Indicator: TA98, Metabolic Activation: RAT, LIVER, S-9, AROCLOR 1254, Method: STANDARD PLATE.
[4] abbreviates: Test System: AMES SALMONELLA TYPHIMURIUM, Strain/Indicator: TA100, Metabolic Activation: NONE, Method: PREINCUBATION
[5] abbreviates: Test System: AMES SALMONELLA TYPHIMURIUM, Strain/Indicator: TA100, Metabolic Activation: RAT, LIVER, S-9, AROCLOR 1254, Method: STANDARD PLATE.
Setting [6] is: End Point: IN VITRO CHROMOSOMAL ABERRATIONS, Test System: CHL CELLS, Metabolic Activation: NONE.
The mark [7] stands for this setting: End Point: IN VITRO CHROMOSOMAL ABERRATIONS, Test System: CHL CELLS, Metabolic Activation: RAT, LIVER, S-9, SODIUM PHENOBARBITAL AND 5,6-BENZOFLAVONE
Setting [8] is: Test System: AMES SALMONELLA TYPHIMURIUM, Strain/Indicator: TA98, Metabolic Activation: NONE, Method: PREINCUBATION

The structures appear in SMILES notation. The source made the active and inactive calls. How the calls were made is not given here.

For the compound `CS(C)=O.[Cl-].[Cl-].[Pt+2].c1ccncc1`, the mutagenic call is, setting by setting: (Test System: AMES SALMONELLA TYPHIMURIUM, Strain/Indicator: TA92, Metabolic Activation: NONE, Method: STANDARD PLATE) “inactive; negative”; under setting [1], “inactive; negative”; under setting [2], “inactive; negative”; (Test System: AMES SALMONELLA TYPHIMURIUM, Strain/Indicator: TA2410, Metabolic Activation: NONE, Method: STANDARD PLATE) “inactive; negative”.

`Cc1ccc(N)cc1N=Nc1cc(N)ccc1C`: the mutagenic call by setting is: (Test System: AMES SALMONELLA TYPHIMURIUM, Strain/Indicator: TA98, Metabolic Activation: NONE, Method: SUSPENSION/PLATE) “inactive; negative”; (Test System: AMES SALMONELLA TYPHIMURIUM, Strain/Indicator: TA98, Metabolic Activation: RAT, LIVER, S-9, PHENOBARBITAL AND 5,6-BENZOFLAVONE, Method: SUSPENSION/PLATE) “active; positive”; (Test System: AMES SALMONELLA TYPHIMURIUM, Strain/Indicator: TA100, Metabolic Activation: NONE, Method: SUSPENSION/PLATE) “inactive; negative”; (Test System: AMES SALMONELLA TYPHIMURIUM, Strain/Indicator: TA100, Metabolic Activation: RAT, LIVER, S-9, PHENOBARBITAL AND 5,6-BENZOFLAVONE, Method: SUSPENSION/PLATE) “active; positive”.

Regarding `[Cd]`, the mutagenic call is, setting by setting: under setting [1], “inactive; negative”; (Test System: AMES SALMONELLA TYPHIMURIUM, Strain/Indicator: TA98, Metabolic Activation: RAT, LIVER, S-9, PHENOBARBITAL, Method: STANDARD PLATE) “inactive; negative”; (Test System: AMES SALMONELLA TYPHIMURIUM, Strain/Indicator: TA102, Metabolic Activation: NONE, Method: STANDARD PLATE) “active; positive”; (Test System: AMES SALMONELLA TYPHIMURIUM, Strain/Indicator: TA102, Metabolic Activation: RAT, LIVER, S-9, PHENOBARBITAL, Method: STANDARD PLATE) “inactive; negative”; (Test System: AMES SALMONELLA TYPHIMURIUM, Strain/Indicator: TA1535, Metabolic Activation: NONE, Method: STANDARD PLATE) “inactive; negative”; (Test System: AMES SALMONELLA TYPHIMURIUM, Strain/Indicator: TA1535, Metabolic Activation: RAT, LIVER, S-9, PHENOBARBITAL, Method: STANDARD PLATE) “inactive; negative”. Also, the mutagenic call runs as follows: (Test System: AMES SALMONELLA TYPHIMURIUM, Strain/Indicator: TA1537, Metabolic Activation: NONE, Method: STANDARD PLATE) “inactive; negative”; (Test System: AMES SALMONELLA TYPHIMURIUM, Strain/Indicator: TA1537, Metabolic Activation: RAT, LIVER, S-9, PHENOBARBITAL, Method: STANDARD PLATE) “inactive; negative”.

Consider `O=C(/C=C/c1ccccc1)c1ccccc1`, for which the mutagenic call is “inactive; negative” under setting [1]; “inactive; negative” under setting [3]; “inactive; negative” under setting [4]; “inactive; negative” under setting [2]; “inactive; negative” (Test System: AMES SALMONELLA TYPHIMURIUM, Strain/Indicator: TA100, Metabolic Activation: RAT, LIVER, S-9, AROCLOR 1254, Method: PREINCUBATION); “inactive; negative” under setting [5].

Regarding `Clc1ccc(C(Cl)(Cl)Cl)cc1`, the mutagenic call is, setting by setting: under setting [6], “active; positive (structural changes)”; under setting [7], “active; positive (structural changes)”; under setting [8], “inactive; negative”; (Test System: AMES SALMONELLA TYPHIMURIUM, Strain/Indicator: TA98, Metabolic Activation: RAT LIVER S-9, PHENOBARBITAL AND BETA-NAPHTHOFLAVONE, Method: PREINCUBATION) “active; positive”; under setting [4], “inactive; negative”; (Test System: AMES SALMONELLA TYPHIMURIUM, Strain/Indicator: TA100, Metabolic Activation: RAT LIVER S-9, PHENOBARBITAL AND BETA-NAPHTHOFLAVONE, Method: PREINCUBATION) “active; positive”. Besides, the mutagenic call was “inactive; negative” (Test System: AMES SALMONELLA TYPHIMURIUM, Strain/Indicator: TA1535, Metabolic Activation: NONE, Method: PREINCUBATION); “active; positive” (Test System: AMES SALMONELLA TYPHIMURIUM, Strain/Indicator: TA1535, Metabolic Activation: RAT LIVER S-9, PHENOBARBITAL AND BETA-NAPHTHOFLAVONE, Method: PREINCUBATION); “inactive; negative” (Test System: AMES SALMONELLA TYPHIMURIUM, Strain/Indicator: TA1537, Metabolic Activation: NONE, Method: PREINCUBATION); “active; positive” (Test System: AMES SALMONELLA TYPHIMURIUM, Strain/Indicator: TA1537, Metabolic Activation: RAT LIVER S-9, PHENOBARBITAL AND BETA-NAPHTHOFLAVONE, Method: PREINCUBATION); “inactive; negative” (Test System: AMES SALMONELLA TYPHIMURIUM, Strain/Indicator: TA1538, Metabolic Activation: NONE, Method: PREINCUBATION); “inactive; negative” (Test System: AMES SALMONELLA TYPHIMURIUM, Strain/Indicator: TA1538, Metabolic Activation: RAT LIVER S-9, PHENOBARBITAL AND BETA-NAPHTHOFLAVONE, Method: PREINCUBATION). The mutagenic call reads like this: (Test System: E.COLI, Strain/Indicator: WP2UVRA, Metabolic Activation: NONE, Method: PREINCUBATION) “inactive; negative”; (Test System: E.COLI, Strain/Indicator: WP2UVRA, Metabolic Activation: RAT LIVER S-9, PHENOBARBITAL AND BETA-NAPHTHOFLAVONE, Method: PREINCUBATION) “active; positive”.

Regarding `Nc1ccc([N+](=O)[O-])cc1[N+](=O)[O-]`, the mutagenic call was “inactive; negative” under setting [6]; “active; positive (structural changes)” under setting [7]; “active; positive” (End Point: IN VITRO CHROMOSOMAL ABERRATIONS, Test System: HUMAN PERIPHERAL LYMPHOCYTES, Metabolic Activation: NONE); “active; positive” under setting [8]; “active; positive” under setting [1]; “active; positive” under setting [3]. Moreover, the mutagenic call is, setting by setting: (Test System: AMES SALMONELLA TYPHIMURIUM, Strain/Indicator: TA98, Metabolic Activation: RAT, LIVER, S-9, KANECHLOR 500, Method: PREINCUBATION) “active; positive”; under setting [4], “active; positive”; under setting [2], “inactive; negative”; under setting [5], “inactive; negative”; (Test System: AMES SALMONELLA TYPHIMURIUM, Strain/Indicator: TA100, Metabolic Activation: RAT, LIVER, S-9, KANECHLOR 500, Method: PREINCUBATION) “active; positive”; (Test System: UDS RODENT HEPATOCYTES, Strain/Indicator: THY INCORP (NON-S-PHASE), Metabolic Activation: NONE, Method: AUTORADIOGRAPHY) “inactive; negative”.
